Our source for the T/C values is PubChem BioAssay AID342 (DTP/NCI, 2004).

For this assay, the system named is Swiss mice, Sarcoma 180 sc, mean tumor weight T/C. Nature of the assay: NCI In Vivo Anticancer Drug Screen. Data for tumor model Sarcoma 180 (subcutaneous) in Swiss mice. The settings on record: endpoint: mean tumor weight, higher = larger tumour. Put shortly:
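Mice bearing transplanted tumors were treated with compound, and survival or tumor size was measured. Values are expressed as the treated-group measurement (T) divided by the vehicle-treated control measurement (C).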

Setting [1] is: dose: 1.0 mg/kg/injection, schedule: Q01DX007 (ip), vehicle: carboxymethylcellulose (CMC).
[2] abbreviates: dose: 2.0 mg/kg/injection, schedule: Q01DX007 (ip), vehicle: carboxymethylcellulose (CMC).
Setting [3] is: dose: 250.0 mg/kg/injection, schedule: Q01DX007 (ip), vehicle: carboxymethylcellulose (CMC).

Molecules are shown by their SMILES. “And” between values parts separate entries of the source, which are not always exact repeats. Equal values may be shown once.

The term T/C denotes the result in the treated group divided by that in the control group, in per cent. For `CC(=O)Nc1cc2c(cc1Br)-c1ccc(F)cc1C2`, the T/C (dose: 222.0 mg/kg/injection, schedule: Q01DX007 (ip), vehicle: other) was 56 % of control; the T/C (dose: 333.0 mg/kg/injection, schedule: Q01DX007 (ip), vehicle: other) was 44 % of control; the T/C (dose: 500.0 mg/kg/injection, schedule: Q01DX007 (ip), vehicle: other) was 22 % of control.

Consider `O=C(O)c1cc2ccccc2c(Br)c1O.OC1CCC(Br)C2CCC[N-]C12.[Cu+]`, for which the T/C is, setting by setting: (dose: 0.5 mg/kg/injection, schedule: Q01DX007 (ip), vehicle: carboxymethylcellulose (CMC)) 74 % of control; under setting [1], 90 % of control and 95 % of control; under setting [2], 101 % of control and 109 % of control; (dose: 4.0 mg/kg/injection, schedule: Q01DX007 (ip), vehicle: carboxymethylcellulose (CMC)) 83 % of control.

For the compound `CCCC(=O)OCC1OC(n2cnc3c(=S)nc(N)[nH]c32)C(OC(=O)CCC)C1OC(=O)CCC` (stereo unspecified), the T/C (dose: 4.1 mg/kg/injection, schedule: Q01DX007 (ip), vehicle: carboxymethylcellulose (CMC)) was 52 % of control; the T/C (dose: 6.2 mg/kg/injection, schedule: Q01DX007 (ip), vehicle: carboxymethylcellulose (CMC)) is 72 % of control; the T/C (dose: 9.3 mg/kg/injection, schedule: Q01DX007 (ip), vehicle: carboxymethylcellulose (CMC)) is 45 % of control; the T/C (dose: 47.0 mg/kg/injection, schedule: Q01DX007 (ip), vehicle: carboxymethylcellulose (CMC)) was 39 % of control.

Consider `CCC1OCCN1C(C)C` (stereo unspecified), for which the T/C by setting is: (dose: 20.0 mg/kg/injection, schedule: Q01DX007 (ip), vehicle: other) 80 % of control; (dose: 33.0 mg/kg/injection, schedule: Q01DX007 (ip), vehicle: other) 75 % of control; (dose: 55.5 mg/kg/injection, schedule: Q01DX007 (ip), vehicle: saline) 79 % of control; (dose: 56.0 mg/kg/injection, schedule: Q01DX007 (ip), vehicle: other) 63 % of control; (dose: 83.3 mg/kg/injection, schedule: Q01DX007 (ip), vehicle: saline) 43 % of control; (dose: 84.0 mg/kg/injection, schedule: Q01DX007 (ip), vehicle: other) 49 % of control. Where the note is “dose: 125.0 mg/kg/injection, schedule: Q01DX007 (ip), vehicle: saline”, the T/C was 21 % of control.

Turning to `CC(=O)[C@@]1(O)[C@H](C)C[C@H]2[C@@H]3C=C(C)C4=Cc5c(cnn5-c5ccccc5)C[C@]4(C)[C@H]3[C@@H](O)C[C@@]21C`, the T/C by setting is: (dose: 0.11 mg/kg/injection, schedule: Q01DX007 (sc), vehicle: steriod suspending solution) 95 % of control; (dose: 0.17 mg/kg/injection, schedule: Q01DX007 (sc), vehicle: steriod suspending solution) 84 % of control; (dose: 0.75 mg/kg/injection, schedule: Q01DX007 (sc), vehicle: steriod suspending solution) 22 % of control and 42 % of control; (dose: 1.0 mg/kg/injection, schedule: Q01DX007 (sc), vehicle: steriod suspending solution) 21 % of control; (dose: 2.0 mg/kg/injection, schedule: Q01DX007 (sc), vehicle: steriod suspending solution) 23 % of control; (dose: 4.0 mg/kg/injection, schedule: Q01DX007 (sc), vehicle: steriod suspending solution) 9 % of control.

For `Cc1ccc(S(=O)(=O)N=S2CCCC2)cc1`, the T/C runs as follows: (dose: 111.0 mg/kg/injection, schedule: Q#A X014 (ip), vehicle: water) 90 % of control; (dose: 166.5 mg/kg/injection, schedule: Q#A X014 (ip), vehicle: water) 107 % of control; (dose: 250.0 mg/kg/injection, schedule: Q#A X014 (ip), vehicle: water) 91 % of control; (dose: 375.0 mg/kg/injection, schedule: Q#A X014 (ip), vehicle: water) 66 % of control.

On to `CCC(=O)OCC1OC(n2cnc3c(=S)nc(N)[nH]c32)C(OC(=O)CC)C1OC(=O)CC` (stereo unspecified), for which the T/C is 61 % of control under setting [1]; 65 % of control under setting [2]; 57 % of control and 58 % of control (dose: 5.0 mg/kg/injection, schedule: Q01DX007 (ip), vehicle: carboxymethylcellulose (CMC)); 22 % of control (dose: 11.0 mg/kg/injection, schedule: Q01DX007 (ip), vehicle: carboxymethylcellulose (CMC)).

For `COc1ccc(C[C@H](N)C(=O)NC2C(CO)OC(n3cnc4c(N(C)C)ncnc43)C2O)cc1` (stereo partly specified), the T/C is 106 % of control (dose: 12.5 mg/kg/injection, schedule: Q#A X014 (ip), vehicle: carboxymethylcellulose (CMC)); 65 % of control (dose: 13.12 mg/kg/injection, schedule: Q01DX007 (ip), vehicle: carboxymethylcellulose (CMC)); 105 % of control (dose: 26.25 mg/kg/injection, schedule: Q01DX007 (ip), vehicle: carboxymethylcellulose (CMC)); 66 % of control (dose: 52.5 mg/kg/injection, schedule: Q01DX007 (ip), vehicle: carboxymethylcellulose (CMC)); 80 % of control (dose: 105.0 mg/kg/injection, schedule: Q01DX007 (ip), vehicle: carboxymethylcellulose (CMC)).

With `COc1ccc(-c2ccc(OC)c(OC)c2OC)c(N)c1`, the T/C (dose: 65.0 mg/kg/injection, schedule: Q01DX007 (ip), vehicle: methylcellulose (MC)) is 98 % of control; the T/C (dose: 125.0 mg/kg/injection, schedule: Q01DX007 (ip), vehicle: methylcellulose (MC)) is 97 % of control; the T/C (dose: 250.0 mg/kg/injection, schedule: Q01DX007 (ip), vehicle: methylcellulose (MC)) is 87 % of control; the T/C (dose: 500.0 mg/kg/injection, schedule: Q01DX007 (ip), vehicle: methylcellulose (MC)) was 63 % of control; the T/C (dose: 625.0 mg/kg/injection, schedule: Q01DX007 (ip), vehicle: methylcellulose (MC)) is 58 % of control; the T/C (dose: 750.0 mg/kg/injection, schedule: Q01DX007 (ip), vehicle: methylcellulose (MC)) is 86 % of control.

`Cc1cc(C(=O)NN)c(C#N)c(=O)[nH]1`: the T/C by setting is: (dose: 111.0 mg/kg/injection, schedule: Q01DX007 (ip), vehicle: carboxymethylcellulose (CMC)) 82 % of control; (dose: 166.0 mg/kg/injection, schedule: Q01DX007 (ip), vehicle: carboxymethylcellulose (CMC)) 87 % of control; under setting [3], 30 % of control; (dose: 375.0 mg/kg/injection, schedule: Q01DX007 (ip), vehicle: carboxymethylcellulose (CMC)) 46 % of control.

Consider `OCC1OC(n2cnc3c(=S)nc[nH]c32)C(O)C1O` (stereo unspecified), for which the T/C (dose: 10.7 mg/kg/injection, schedule: Q01DX007 (ip), vehicle: carboxymethylcellulose (CMC)) is 51 % of control; the T/C (dose: 17.04 mg/kg/injection, schedule: Q01DX007 (ip), vehicle: carboxymethylcellulose (CMC)) is 61 % of control; the T/C (dose: 20.0 mg/kg/injection, schedule: Q#A X014 (ip), vehicle: methylcellulose (MC)) was 63 % of control; the T/C (dose: 21.3 mg/kg/injection, schedule: Q01DX007 (ip), vehicle: carboxymethylcellulose (CMC)) is 40 % of control and 64 % of control; the T/C (dose: 28.4 mg/kg/injection, schedule: Q01DX007 (ip), vehicle: carboxymethylcellulose (CMC)) is 48 % of control; the T/C (dose: 37.5 mg/kg/injection, schedule: Q#A X014 (ip), vehicle: methylcellulose (MC)) is 56 % of control. Also, the T/C was 42 % of control and 46 % of control (dose: 42.6 mg/kg/injection, schedule: Q01DX007 (ip), vehicle: carboxymethylcellulose (CMC)); 44 % of control (dose: 62.0 mg/kg/injection, schedule: Q01DX007 (ip), vehicle: carboxymethylcellulose (CMC)); 22 % of control (dose: 75.0 mg/kg/injection, schedule: Q#A X014 (ip), vehicle: methylcellulose (MC)); 41 % of control and 44 % of control (dose: 85.2 mg/kg/injection, schedule: Q01DX007 (ip), vehicle: carboxymethylcellulose (CMC)); 20 % of control and 24 % of control (dose: 100.0 mg/kg/injection, schedule: Q#A X014 (ip), vehicle: methylcellulose (MC)); 59 % of control (dose: 125.0 mg/kg/injection, schedule: Q01DX007 (ip), vehicle: carboxymethylcellulose (CMC)). Also, the T/C reads like this: under setting [3], 25 % of control; (dose: 300.0 mg/kg/injection, schedule: Q01DX007 (ip), vehicle: carboxymethylcellulose (CMC)) 21 % of control; (dose: 400.0 mg/kg/injection, schedule: Q01DX007 (ip), vehicle: carboxymethylcellulose (CMC)) 19 % of control; (dose: 450.0 mg/kg/injection, schedule: Q01DX007 (ip), vehicle: carboxymethylcellulose (CMC)) 11 % of control.

Regarding `CCN(CC)CCOC(=O)c1ccc(N)cc1`, the T/C (dose: 75.0 mg/kg/injection, schedule: Q#A X014 (ip), vehicle: saline) was 92 % of control.

Turning to `COc1cccc2c1-c1ccccc1C2`, the T/C is, setting by setting: (dose: 62.5 mg/kg/injection, schedule: Q01DX007 (ip), vehicle: carboxymethylcellulose (CMC)) 151 % of control; under setting [3], 114 % of control.
